The record followed here is patent US8916540B2, “Antibiotic compositions and related screening methods” (Academia Sinica, priority 2008, dated 2014).

≈ marks a conversion by molar mass, not a printed value. Read-outs that look alike come from different tables or passages of the source.

The target in one experiment is T1, H. pylori PBP1a (Helicobacter pylori, UniProt O25319, /I22V/I24V/I79V/M17V/S417T/V16I, form not given).
T1 sequence (O25319 1-659 V16I/M17V/I22V/I24V/G44S/I79V/I101V/F125L/G242S/E323D/D336E/E406V/S417T/D508E): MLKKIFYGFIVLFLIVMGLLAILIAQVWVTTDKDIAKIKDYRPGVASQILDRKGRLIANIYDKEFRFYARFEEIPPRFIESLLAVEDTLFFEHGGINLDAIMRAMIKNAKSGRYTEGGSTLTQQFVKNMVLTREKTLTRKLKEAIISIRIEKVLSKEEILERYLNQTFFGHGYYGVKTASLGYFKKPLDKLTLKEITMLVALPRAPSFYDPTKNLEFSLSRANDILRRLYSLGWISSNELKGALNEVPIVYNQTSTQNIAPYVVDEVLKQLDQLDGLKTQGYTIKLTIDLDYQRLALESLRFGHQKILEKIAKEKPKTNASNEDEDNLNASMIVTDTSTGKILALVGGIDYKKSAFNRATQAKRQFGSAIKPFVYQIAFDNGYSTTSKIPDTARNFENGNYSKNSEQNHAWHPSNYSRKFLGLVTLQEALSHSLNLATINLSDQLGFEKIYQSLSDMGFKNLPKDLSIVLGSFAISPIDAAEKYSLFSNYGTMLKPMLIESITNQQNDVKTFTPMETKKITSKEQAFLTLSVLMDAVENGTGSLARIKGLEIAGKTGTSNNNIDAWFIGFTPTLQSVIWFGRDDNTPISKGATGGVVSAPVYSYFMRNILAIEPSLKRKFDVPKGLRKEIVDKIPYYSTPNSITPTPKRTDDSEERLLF
Type of experiment: binding. As to conditions: read-out: IC50 (fluorescence anisotropy assay, displacement of F-Moe); 100 nM F-Moe, 10 μg/ml H. pylori PBP1a, 10 mM Tris pH 8.0, 100 mM NaCl. How it is done: Fluorescence anisotropy measurements were carried out in triplicates in the wells of 384-well plates using a laser fluorimetry equipped with a 488 nm laser (IsoCyte, Blueshift Biotech, Inc., Sunnyvale, Calif., USA). Various buffers, salts, pH values, and divalent cations (Ca^++, Mg^++, Co^++) were optimized for fluorescence anisotropy measurements. […] The scanning focus was above the plate bottom to avoid detection interferences. Data analysis was performed with the proprietary software, BlueImage (Blueshift Biotech Inc). Fluorescence anisotropy values (A) were calculated using the equation: A=(/∥−G*/⊥)/(/∥+2G*/⊥), where /∥ is the fluorescence intensity of emitted light parallel to excitation, /⊥ is the fluorescence intensity of emitted light perpendicular to excitation, and G is the […] that corrects for instrument bias. The G factor is experimentally determined for each run using the probe-only well as the basal an isotropy.
For the development of an assay for inhibitor screening, F-Moe was pre-incubated with H. pylori PBP1a and then competed with unlabeled Moe A at various concentrations.
For displacement assay, the initial condition contained 40 μl of 100 nM F-Moe, 10 μg/ml H. pylori PBP1a in 10 mM Tris, pH 8.0, 100 mM NaCl. Aliquots of compound stock solution were added and the anisotropy was monitored after 5 minutes of equilibration. The data from the displacement assay was used to calculate the inhibition constant (KI) and IC50 value of an inhibitor using the complete competitive binding model
[formula] The KI value was determined by plotting the total inhibitor concentration (C) versus the molar ratio of bound/free F-Moe and fitting the resulting curve to [Eq. 2], C=[(KI/KD*X)+1][RT−(LST*X)/(X+1)−KD*X [Eq. 2] […] The reported value is the average of four different runs.
For IC50 determination, the fraction of bound fluorescent probe is plotted versus the log value of the competitor concentration (C).
A general note: Polarisation of emitted light reports the rotation of a fluorescent probe.

Another experiment deals with Enterococcus faecalis. The experiment in a line: Minimal inhibitory concentration (MIC) determination. To be noted: Enterococcus faecalis. It is filed as cell-based. On the procedure:
(§1) The minimal inhibitory concentration (MIC) of tested compounds was determined following the NCCLS standard. The experiments were conducted in 96-well microtiter plates using two-fold dilutions in Muller-Hilton broth with (Streptococcus pneumonia) or without blood (Bacillus subtilis, Enterococcus faecalis, Staphylococcus aureus). Exponentially growing cells at 5×10^5 cells/ml were incubated with test compounds at various concentrations.

The next experiment deals with Streptococcus pneumoniae. The description is as above. To be noted: Streptococcus pneumoniae. Type of experiment: cell-based. How it is done:
as §1

For another experiment, the system named is Staphylococcus aureus. Described as above. Type of experiment: cell-based. As to conditions: Staphylococcus aureus. On the procedure: as §1
The next experiment deals with Bacillus subtilis. The description is as above. As to conditions: Bacillus subtilis. Type of experiment: cell-based. How it is done:
as §1

The mark [1] stands for this setting: E. faecalis ATCC29212, Muller-Hilton broth, 18 h to 24 h, 37° C., read-out: MIC E. faecalis (ATCC29212).
Setting [2] is: S. aureus ATCC29213, Muller-Hilton broth, 18 h to 24 h, 37° C., read-out: MIC S. aureus (ATCC29213).
[3] abbreviates: B. subtilis ATCC23857, Muller-Hilton broth, 18 h to 24 h, 37° C., read-out: MIC B. subtilis (ATCC23857).
Where [4] appears, read: S. pneumoniae ATCC49619, Muller-Hilton broth with blood, 18 h to 24 h, 37° C., read-out: MIC S. pneumoniae (ATCC49619).

Consider `C=C(CC=C(C)CCC=C(C)C)CCC(C)(C)C=CCCC(C)=CCOC(COP(=O)(O)OC1OC(C(N)=O)C(C)(O)C(OC(N)=O)C1OC1OC(COC2OC(CO)C(O)C(O)C2O)C(OC2OC(C)C(OC3OC(c4nc(C(=O)CCC(=O)O)nn4-c4ccc([N+](=O)[O-])c(C(=O)NCCNC(=O)CCCCCCC(=O)NCCNC(=O)c5cc(-n6nc(C(=O)CCC(=O)O)nc6C6OC(OC7C(C)OC(OC8C(COC9OC(CO)C(O)C(O)C9O)OC(OC9C(OP(=O)(O)OCC(OCC=C(C)CCC=CC(C)(C)CCC(=C)CC=C(C)CCC=C(C)C)C(=O)O)OC(C(N)=O)C(C)(O)C9OC(N)=O)C(NC(C)=O)C8O)C(NC(C)=O)C7O)C(O)C(O)C6O)ccc5[N+](=O)[O-])c4)C(O)C(O)C3O)C(O)C2NC(C)=O)C(O)C1NC(C)=O)C(=O)O` (stereo not drawn) [Compound 4], for which the IC50 (as a rule, the midpoint of a concentration-inhibition curve) on H. pylori PBP1a stood at 0.92 µM. In addition, the minimal inhibitory concentration (MIC) (as a rule, the lowest concentration that inhibits growth of the organism) in the experiment with Enterococcus faecalis (ATCC29212, read-out: MIC E. faecalis (ATCC29212)) came out at 5 µM (≈ 18.9 µg/mL); in the experiment with Streptococcus pneumoniae (ATCC49619, read-out: MIC S. pneumoniae (ATCC49619)), 20 µM (≈ 75.5 µg/mL); with Staphylococcus aureus (ATCC29213, read-out: MIC S. aureus (ATCC29213)), 0.625 µM (≈ 2.36 µg/mL); with Bacillus subtilis (ATCC23857, read-out: MIC B. subtilis (ATCC23857)), 1.25 µM (≈ 4.72 µg/mL).
Take `O=C1/C(=N\Nc2nccs2)C(c2ccccc2)=NN1c1ccccc1` [Compound 7]: at H. pylori PBP1a, the IC50 worked out at 3.7 µM. In addition, the MIC in the experiment with Enterococcus faecalis (setting [1]) is 1 µM (≈ 0.347 µg/mL); in the experiment with Staphylococcus aureus (setting [2]), 4 µM (≈ 1.39 µg/mL); in the experiment on Bacillus subtilis (setting [3]), 0.25 µM (≈ 0.0869 µg/mL).
In the case of `O=C1OC(c2ccc(Br)cc2)=C/C1=C/c1ccc([N+](=O)[O-])o1` [Compound 6, (Z)-5-(4-bromophenyl)-3-((5-nitrofuran-2-yl)methylene)furan-2(3H)-one], the IC50 on H. pylori PBP1a is 34 µM. Moreover, the MIC in the experiment on Enterococcus faecalis (setting [1]) worked out at 0.25 µM (≈ 0.0905 µg/mL); in the experiment on Streptococcus pneumoniae (setting [4]) it was 4 µM (≈ 1.45 µg/mL); in the experiment with Staphylococcus aureus (setting [2]), 1 µM (≈ 0.362 µg/mL); with Bacillus subtilis (setting [3]), 0.25 µM (≈ 0.0905 µg/mL).
`C/C(=C\c1ccc(C(=O)O)cc1)c1ccc2c(c1)C(C)(C)CCC2(C)C` [Compound 8, (E)-4-(2-(5,5,8,8,-tetramethyl-5,6,7,8-tetrahydronaphthalen-2-yl)prop-1-enyl)benzoic acid]: at H. pylori PBP1a, the IC50 is 9.3 µM. For the same molecule, the minimal inhibitory concentration (MIC) is above 4 µM in the experiment with Enterococcus faecalis (setting [1]), above 4 µM in the experiment on Streptococcus pneumoniae (setting [4]), above 4 µM in the experiment with Staphylococcus aureus (setting [2]) and 4 µM (≈ 1.39 µg/mL) with Bacillus subtilis (setting [3]).
Turning to `C=C(CC=C(C)CCC=C(C)C)CCC(C)(C)C=CCCC(C)=CCOC(COP(=O)(O)OC1OC(C(N)=O)C(C)(O)C(OC(N)=O)C1OC1OC(COC2OC(CO)C(O)C(O)C2O)C(OC2OC(C)C(OC3OC(c4nc(C(=O)CCC(=O)O)nn4-c4ccc([N+](=O)[O-])c(C(=O)NCCN)c4)C(O)C(O)C3O)C(O)C2NC(C)=O)C(O)C1NC(C)=O)C(=O)O` (stereo not drawn) [Compound 2], the IC50 on H. pylori PBP1a stood at 2.1 µM. For the same molecule, the MIC in the experiment on Enterococcus faecalis (setting [1]) came to 10 µM (≈ 18.2 µg/mL); with Streptococcus pneumoniae (setting [4]), 20 µM (≈ 36.4 µg/mL); in the experiment on Staphylococcus aureus (setting [2]), 1.25 µM (≈ 2.27 µg/mL); in the experiment on Bacillus subtilis (setting [3]), 2.5 µM (≈ 4.54 µg/mL).
